These results are taken from patent publication US10723699B2 (Hyundai Pharm Co., Ltd., priority 2015, dated 2020).

pEC50: −log10 of the molar value. Where two headings read alike, the source gives them in different places.

The target in the test is T1, G protein-coupled receptor 119 (GPR-119) (Mesocricetus auratus, UniProt A0A1U8CD06).
T1 construct: hamster-derived β-cells containing G protein-coupled receptor 119 (GPR-119), HIT-T15 cells; host or cells: HIT-T15 (hamster pancreatic β-cells)
T1 sequence (A0A1U8CD06 1-334): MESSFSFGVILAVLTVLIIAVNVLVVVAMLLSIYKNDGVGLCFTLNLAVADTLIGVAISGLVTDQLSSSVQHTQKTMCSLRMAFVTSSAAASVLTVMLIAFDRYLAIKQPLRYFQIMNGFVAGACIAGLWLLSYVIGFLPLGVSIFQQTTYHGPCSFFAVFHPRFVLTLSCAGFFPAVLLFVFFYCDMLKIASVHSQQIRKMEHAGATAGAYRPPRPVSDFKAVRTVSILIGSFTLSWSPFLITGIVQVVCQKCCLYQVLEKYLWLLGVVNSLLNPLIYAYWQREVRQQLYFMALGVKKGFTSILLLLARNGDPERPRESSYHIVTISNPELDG
As to the kind of experiment: cAMP activity in HIT-T15 cells (cAMP dynamic kit, FRET). In kind it is cell-based, hamster. The procedure:
To check whether the cyclohexene derivatives according to the present invention activate cyclic adenosine monophosphate (cAMP), experiments were carried out, as follows.
The HIT-T15 cells were plated on a 96-well plate at 60,000 cells per well. On the next day of plating, the cells were treated with a varying concentration of each of the example compounds according to the present invention, and incubated at 37° C. for an hour. In this case, each of the treated compounds was used at six concentrations, ranging from 0.0032 to 10 μM, to treat the cells.
The cyclic adenosine monophosphate (cAMP) activity was measured according to the manufacturer's instruction using a cAMP dynamic kit commercially available from Cis Bio Inc. (Bedford, Mass.). The cells were lysed, and a level of cAMP was determined by a competitive immunoassay using D2-labeled cAMP and a cryptate-labeled anti-cAMP antibody. Fluorescence was read in Flex Station (Molecular Devices). […] Unlabeled cAMP in the cell lysate competed with the D2-labeled cAMP against the cryptate-labeled antibody. Since a decrease in the measured intensity of the FRET signals represents a level of cAMP in the cells, the cAMP activities of the compounds are calculated as a change in FRET signals by adjusting an amount of dimethyl sulfoxide (DMSO).

Setting [1] is: 1 hour at 37° C., six concentrations 0.0032 to 10 μM, read-out: EC50.

The term pEC50 denotes the negative decadic logarithm of the EC50, by convention in mol/L. As usually defined, the EC50 is the concentration that produces a half-maximal response.

On to `CC(C)(C)OC(=O)N1CCC(COc2ccc(C3=CCC(C(=O)N4CCN(CC5CC5)CC4)CC3)cc2)CC1` (centres unmarked) [Example 256, tert-butyl 4-((4-(4-(4-(cyclopropylmethyl)piperazine-1-carbonyl)cyclohex-1-enyl)phenoxy)methyl)piperidine-1-carboxylate], for which the pEC50 (Table 2, read-out: EC50 value) is not below 7.30.
As to `CN(CCO)C(=O)C1CC=C(c2ccc(OCC3CCN(C(=O)OC(C)(C)C)CC3)cn2)CC1` (centres unmarked) [Example 341, tert-butyl 4-((6-(4-((2-hydroxyethyl)(methyl)carbamoyl)cyclohex-1-enyl)pyridin-3-yloxy)methyl)piperidine-1-carboxylate], the pEC50 under setting [1] was 6.74.
As for `CCc1cnc(N2CCC(COc3ccc(C4=CCC(C(=O)NC5CC5)CC4)cc3F)CC2)nc1` (centres unmarked) [Example 302, N-cyclopropyl-4-(4-((1-(5-ethylpyrimidin-2-yl)piperidin-4-yl)methoxy)-3-fluorophenyl)cyclohex-3-enecarboxamide], the negative-log EC50 (pEC50) under setting [1] was 6.96.
For the molecule `CCN1CCN(C(=O)C2CC=C(c3ccc(OCC4CCN(c5nc(C(C)C)no5)CC4)c(F)c3)CC2)CC1` (centres unmarked) [Example 367, (4-ethylpiperazin-1-yl)(4-(3-fluoro-4-((1-(3-isopropyl-1,2,4-oxadiazol-5-yl)piperidin-4-yl)methoxy)phenyl)cyclohex-3-enyl)methanone], the pEC50 by setting is: under setting [1], 7.59; (Table 2, read-out: EC50 value) not below 7.30.
For `CC(C)c1noc(N2CCC(COc3ccc(C4=CCC(C(=O)NC5CCCC5)CC4)cc3F)CC2)n1` (centres unmarked) [Example 365, N-cyclopentyl-4-(3-fluoro-4-((1-(3-isopropyl-1,2,4-oxadiazol-5-yl)piperidin-4-yl)methoxy)phenyl)cyclohex-3-enecarboxamide] the same measures were 7.42 and not below 7.30.
In the same order, the values of `O=C(OC(C(F)(F)F)C(F)(F)F)N1CCC(COc2ccc(C3=CCC(C(=O)N4CCOCC4)CC3)cc2F)CC1` (centres unmarked) [Example 446, 1,1,1,3,3,3-hexafluoropropan-2-yl 4-((2-fluoro-4-(4-(morpholine-4-carbonyl)cyclohex-1-enyl)phenoxy)methyl)piperidine-1-carboxylate] are 7.70 and not below 7.30.
On to `CCc1cnc(N2CCC(COc3ccc(C4=CCC(C(=O)N5CCC(F)(F)C5)CC4)c(F)c3)CC2)nc1` (single isomer, unassigned; (-)) [Example 461, (−)-(3,3-difluoropyrrolidin-1-yl)(4-(4-((1-(5-ethylpyrimidin-2-yl)piperidin-4-yl)methoxy)-2-fluorophenyl)cyclohex-3-enyl)methanone], for which the pEC50 under setting [1] was 7.04.
Turning to `CC(C)(C)OC(=O)N1CCC(COc2ccc(C3=CCC(C(=O)N4CCOCC4)CC3)cc2F)CC1` (single isomer, unassigned; (+)) [Example 442, (+)-tert-butyl 4-((2-fluoro-4-(4-(morpholine-4-carbonyl)cyclohex-1-enyl)phenoxy)methyl)piperidine-1-carboxylate], the pEC50 by setting is: under setting [1], 8.10; (Table 2, read-out: EC50 value) not below 7.30.
In the same order, the values of `CCc1cnc(N2CCC(COc3ccc(C4=CCC(C(=O)NC5CCCC5)CC4)cc3F)CC2)nc1` (centres unmarked) [Example 304, N-cyclopentyl-4-(4-((1-(5-ethylpyrimidin-2-yl)piperidin-4-yl)methoxy)-3-fluorophenyl)cyclohex-3-enecarboxamide] are 7.70 and not below 7.30.
With `CCc1cnc(N2CCC(COc3ccc(C4=CCC(C(=O)N5CCC(O)CC5)CC4)cc3C#N)CC2)nc1` (centres unmarked) [Example 390, 2-((1-(5-ethylpyrimidin-2-yl)piperidin-4-yl)methoxy)-5-(4-(4-hydroxypiperidine-1-carbonyl)cyclohex-1-enyl)benzonitrile], under setting [1], the negative logarithm of the EC50 (pEC50) was 7.15.
On the same count and under the same terms, as for `CC(C)c1noc(N2CCC(COc3ccc(C4=CCC(C(=O)N5CCC5)CC4)cn3)CC2)n1` (centres unmarked) [Example 339, azetidin-1-yl(4-(6-((1-(3-isopropyl-1,2,4-oxadiazol-5-yl)piperidin-4-yl)methoxy)pyridin-3-yl)cyclohex-3-enyl)methanone], the figure is 6.92.
As to `CCc1cnc(N2CCC(COc3ccc(C4=CCC(C(=O)N(CC)CCO)CC4)cc3F)CC2)nc1` (centres unmarked) [Example 360, N-ethyl-4-(4-((1-(5-ethylpyrimidin-2-yl)piperidin-4-yl)methoxy)-3-fluorophenyl)-N-(2-hydroxyethyl)cyclohex-3-enecarboxamide], the pEC50 is 8.06 under setting [1] and not below 7.30 (Table 2, read-out: EC50 value).
For `CCc1cnc(N2CCC(COc3ccc(C4=CCC(C(=O)N5CCOCC5)CC4)cn3)CC2)nc1` (centres unmarked) [Example 351, (4-(6-((1-(5-ethylpyrimidin-2-yl)piperidin-4-yl)methoxy)pyridin-3-yl)cyclohex-3-enyl)(morpholino)methanone] the same measures were 7.39 and not below 7.30.
In the same order, the values of `CCc1cnc(N2CCC(COc3ccc(C4=CCC(C(=O)N5CCCC5)CC4)cc3F)CC2)nc1` (centres unmarked) [Example 293, (4-(4-((1-(5-ethylpyrimidin-2-yl)piperidin-4-yl)methoxy)-3-fluorophenyl)cyclohex-3-enyl)(pyrrolidin-1-yl)methanone] are 7.74 and not below 7.30.
In the same order, the values of `CCc1cnc(N2CCC(COc3ccc(C4=CCC(C(=O)N5CCOCC5)CC4)cc3C)CC2)nc1` (centres unmarked) [Example 417, (4-(4-((1-(5-ethylpyrimidin-2-yl)piperidin-4-yl)methoxy)-3-methylphenyl)cyclohex-3-enyl)(morpholino)methanone] are 7.30 and not below 7.30.
Consider `CC(C)c1noc(N2CCC(COc3ccc(C4=CCC(C(=O)N5CCCCC5)CC4)cn3)CC2)n1` (centres unmarked) [Example 316, (4-(6-((1-(3-isopropyl-1,2,4-oxadiazol-5-yl)piperidin-4-yl)methoxy)pyridin-3-yl)cyclohex-3-enyl)(piperidin-1-yl)methanone], for which the pEC50 by setting is: under setting [1], 7.43; (Table 2, read-out: EC50 value) not below 7.30.
Where the note is “EC50 (nM), 1 hour at 37° C., six concentrations 0.0032 to 10 μM”, `CC(C)c1noc(N2CCC(COc3ccc(C4=CCC(C(=O)N5CCC6(CC5)OCCO6)CC4)cc3F)CC2)n1` (centres unmarked) [Example 370, (4-(3-fluoro-4-((1-(3-isopropyl-1,2,4-oxadiazol-5-yl)piperidin-4-yl)methoxy)phenyl)cyclohex-3-enyl)(1,4-dioxa-8-azaspiro[4.5]decan-8-yl)methanone] yielded an EC50 of 15 nM. The molecule further showed a negative logarithm of the EC50 (pEC50) (EC50 value, Table 2) not below 7.30.
Turning to `CCc1cnc(N2CCC(COc3ccc(C4=CCC(C(=O)N(C)CCO)CC4)cc3F)CC2)nc1` (centres unmarked) [Example 359, 4-(4-((1-(5-ethylpyrimidin-2-yl)piperidin-4-yl)methoxy)-3-fluorophenyl)-N-(2-hydroxyethyl)-N-methylcyclohex-3-enecarboxamide], the pEC50 was 7.85 under setting [1] and not below 7.30 (Table 2, read-out: EC50 value).
Regarding `CC(C)(C)OC(=O)N1CCC(COc2ccc(C3=CCC(C(=O)N4CCC(CO)CC4)CC3)nc2)CC1` (centres unmarked) [Example 325, tert-butyl 4-((6-(4-(4-(hydroxymethyl)piperidine-1-carbonyl)cyclohex-1-enyl)pyridin-3-yloxy)methyl)piperidine-1-carboxylate], under setting [1], the pEC50 is 7.28.
As for `CC(C)c1noc(N2CCC(COc3ccc(C4=CCC(C(=O)N5CCC5)CC4)cc3F)CC2)n1` (centres unmarked) [Example 330, azetidin-1-yl(4-(3-fluoro-4-((1-(3-isopropyl-1,2,4-oxadiazol-5-yl)piperidin-4-yl)methoxy)phenyl)cyclohex-3-enyl)methanone], the negative-log EC50 (pEC50) under setting [1] is 7.46 and the negative-log EC50 (pEC50) (Table 2, read-out: EC50 value) is not below 7.30.
For `CCc1cnc(N2CCC(COc3ccc(C4=CCC(C(=O)N5CCC(F)(F)C5)CC4)cc3F)CC2)nc1` (centres unmarked) [Example 459, (3,3-difluoropyrrolidin-1-yl)(4-(4-((1-(5-ethylpyrimidin-2-yl)piperidin-4-yl)methoxy)-3-fluorophenyl)cyclohex-3-enyl)methanone] the same measures were 7.44 and not below 7.30.
On to `CCc1cnc(N2CCC(COc3ccc(C4=CCC(C(=O)N5CCCC5)CC4)cc3N)CC2)nc1` (centres unmarked) [Example 393, (4-(3-amino-4-((1-(5-ethylpyrimidin-2-yl)piperidin-4-yl)methoxy)phenyl)cyclohex-3-enyl)(pyrrolidin-1-yl)methanone], for which, under setting [1], the pEC50 is 6.89.
On the same count and under the same terms, the result for `CC(C)c1noc(N2CCC(COc3ccc(C4=CCC(C(=O)N5CCNCC5)CC4)cc3F)CC2)n1` (centres unmarked) [Example 381, (4-(3-fluoro-4-((1-(3-isopropyl-1,2,4-oxadiazol-5-yl)piperidin-4-yl)methoxy)phenyl)cyclohex-3-enyl)(piperazin-1-yl)methanone] reads 6.96; that for `CCc1cnc(N2CCC(COc3ccc(C4=CCC(C(=O)N5CCC5)CC4)cc3C#N)CC2)nc1` (centres unmarked) [Example 387, 5-(4-(azetidine-1-carbonyl)cyclohex-1-enyl)-2-((1-(5-ethylpyrimidin-2-yl)piperidin-4-yl)methoxy)benzonitrile], 7.10.
